For orientation: logP means the decadic logarithm of the partition coefficient of the neutral form, usually between octanol and water. A higher logP goes with a more lipophilic compound. Usually IC50 stands for the point on the concentration scale where inhibition reaches its midpoint. A high value points to a need for much substance.

Experimental findings from ChEMBL document CHEMBL1124587 (J Med Chem, 1989) are described below.

Data set [1] in a line: Partition coefficient (logD). Conditions: octanol/water.
A short description of data set [2]: Inhibition of binding of [3H]strychnine to glycine receptor in rat.
For data set [3], the target named is Glycine receptor (Rattus norvegicus). The experiment in a line: Inhibition of binding of [3H]strychnine to glycine receptor.

In turn, `Oc1coc2[nH]cnc12` showed a logP in data set [1] of 0.33.
In turn, `NCC(=O)O` [GLYCINE] had an IC50 in data set [2] of 6 µM.
For `Nc1ccccc1O` [QUESTIOMYCIN B], in data set [1], the logP was found to be 0.65.
`COc1ccc(-c2[nH]nc(O)c2N)cc1`: in data set [1], the logP was 0.85.
The compound `Oc1coc2cc[nH]c12` registered a lipophilicity (logP) in data set [1] of 1.07.
Turning to `CNCC(=O)O` [SARCOSINE], the IC50 in data set [2] is 350 µM.
The compound `Nc1c(C(F)(F)F)n[nH]c1O` had an IC50 in data set [3] of 418 µM.
